According to ChEMBL document CHEMBL2040736, “Design of potent and selective hybrid inhibitors of the mitotic kinase Nek2: structure-activity relationship, structural biology, and cellular activity” (J Med Chem, 2012):

Tests used:
[1] = molecular target: T1, Serine/threonine-protein kinase Nek2 (Homo sapiens, UniProt P51955)
T1 sequence (P51955 whole entry): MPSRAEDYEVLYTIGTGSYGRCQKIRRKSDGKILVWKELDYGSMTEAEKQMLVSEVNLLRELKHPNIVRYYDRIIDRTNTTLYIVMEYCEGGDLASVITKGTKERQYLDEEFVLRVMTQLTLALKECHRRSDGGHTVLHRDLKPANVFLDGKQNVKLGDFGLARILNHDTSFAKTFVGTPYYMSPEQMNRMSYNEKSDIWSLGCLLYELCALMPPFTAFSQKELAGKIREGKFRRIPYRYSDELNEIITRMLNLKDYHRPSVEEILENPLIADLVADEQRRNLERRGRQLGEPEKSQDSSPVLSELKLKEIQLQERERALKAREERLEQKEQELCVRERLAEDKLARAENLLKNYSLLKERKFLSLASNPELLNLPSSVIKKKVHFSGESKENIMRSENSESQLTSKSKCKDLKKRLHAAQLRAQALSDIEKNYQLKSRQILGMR

[2] = molecular target: Serine/threonine-protein kinase PLK1 (Homo sapiens, UniProt P53350); experiment: Inhibition of Plk1 using 5-FAMRRRAGALMDASFEEQ- CONH2 as substrate after 75 mins by caliper method
[3] = Drug metabolism in mouse liver microsomes after 30 mins; format: ADME, Microsome; conditions: read-out: Drug metabolism
[4] = Permeability of the compound by PAMPA assay; format: ADME
[5] = system: U2OS; experiment: Growth inhibition of human U2OS cells after 92 hrs by CellTiter-Blue assay; format: functional
[6] = molecular target: Cyclin-dependent kinase 2 (Homo sapiens, UniProt P24941); experiment: Inhibition of CDK2 by caliper method
[7] = molecular target: T2, Aurora kinase A (Homo sapiens, UniProt O14965); experiment: Inhibition of Aurora A kinase by caliper method
T2 sequence (O14965 whole entry): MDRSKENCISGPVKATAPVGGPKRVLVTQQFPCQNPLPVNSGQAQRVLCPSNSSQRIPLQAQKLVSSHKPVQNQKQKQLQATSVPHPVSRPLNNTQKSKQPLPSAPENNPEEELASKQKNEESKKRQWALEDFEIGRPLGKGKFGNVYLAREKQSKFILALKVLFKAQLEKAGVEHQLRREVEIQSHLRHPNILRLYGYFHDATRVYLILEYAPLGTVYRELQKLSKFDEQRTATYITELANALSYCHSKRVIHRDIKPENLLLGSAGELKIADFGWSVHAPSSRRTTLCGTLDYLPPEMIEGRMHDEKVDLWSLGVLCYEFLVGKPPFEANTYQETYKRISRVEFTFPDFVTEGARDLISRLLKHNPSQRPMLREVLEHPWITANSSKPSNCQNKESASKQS

[8] = system: MCF7; experiment: Growth inhibition of human MCF7 cells after 92 hrs by CellTiter-Blue assay; format: functional; conditions: MCF7, 92 h
[9] = system: MDA-MB-231; experiment: Growth inhibition of human MDA-MB-231 cells after 92 hrs by CellTiter-Blue assay; format: functional; conditions: MDA-MB-231, 92 h
[10] = molecular target: T3, Dual specificity protein kinase TTK (Homo sapiens, UniProt P33981); experiment: Inhibition of MPS1 by caliper method
T3 sequence (P33981 whole entry): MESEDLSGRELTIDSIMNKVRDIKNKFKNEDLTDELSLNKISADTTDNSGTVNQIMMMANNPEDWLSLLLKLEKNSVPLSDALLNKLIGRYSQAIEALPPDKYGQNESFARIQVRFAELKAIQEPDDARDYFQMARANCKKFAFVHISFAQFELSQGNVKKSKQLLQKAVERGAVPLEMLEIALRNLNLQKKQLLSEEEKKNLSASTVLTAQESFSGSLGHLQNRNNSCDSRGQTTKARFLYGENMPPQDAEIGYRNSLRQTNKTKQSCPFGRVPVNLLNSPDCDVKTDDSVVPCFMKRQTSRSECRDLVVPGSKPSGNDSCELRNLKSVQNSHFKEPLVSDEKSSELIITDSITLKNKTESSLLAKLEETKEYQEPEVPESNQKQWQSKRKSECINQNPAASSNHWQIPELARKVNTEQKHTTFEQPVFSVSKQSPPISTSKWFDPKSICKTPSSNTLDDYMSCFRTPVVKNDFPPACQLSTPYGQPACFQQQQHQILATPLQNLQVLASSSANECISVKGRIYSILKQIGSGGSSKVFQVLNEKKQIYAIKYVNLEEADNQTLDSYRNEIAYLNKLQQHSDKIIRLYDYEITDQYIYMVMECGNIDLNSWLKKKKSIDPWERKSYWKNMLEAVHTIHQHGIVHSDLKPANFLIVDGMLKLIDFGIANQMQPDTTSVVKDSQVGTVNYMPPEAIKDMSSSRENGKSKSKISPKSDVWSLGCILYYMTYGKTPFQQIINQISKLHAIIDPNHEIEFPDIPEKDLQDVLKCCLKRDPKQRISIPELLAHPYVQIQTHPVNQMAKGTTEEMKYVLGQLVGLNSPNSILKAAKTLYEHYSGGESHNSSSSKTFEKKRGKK

[11] = system: HeLa; experiment: Growth inhibition of human HeLa cells after 92 hrs by CellTiter-Blue assay; format: functional
[12] = molecular target: T1, Serine/threonine-protein kinase Nek2; conditions: u2os
Description: Inhibition of Nek2-mediated C-Nap1 phosphorylation in human U2OS cells after 3 hrs by immunofluorescence microscopy

Serine/threonine-protein kinase PLK1, sequence (P53350 whole entry): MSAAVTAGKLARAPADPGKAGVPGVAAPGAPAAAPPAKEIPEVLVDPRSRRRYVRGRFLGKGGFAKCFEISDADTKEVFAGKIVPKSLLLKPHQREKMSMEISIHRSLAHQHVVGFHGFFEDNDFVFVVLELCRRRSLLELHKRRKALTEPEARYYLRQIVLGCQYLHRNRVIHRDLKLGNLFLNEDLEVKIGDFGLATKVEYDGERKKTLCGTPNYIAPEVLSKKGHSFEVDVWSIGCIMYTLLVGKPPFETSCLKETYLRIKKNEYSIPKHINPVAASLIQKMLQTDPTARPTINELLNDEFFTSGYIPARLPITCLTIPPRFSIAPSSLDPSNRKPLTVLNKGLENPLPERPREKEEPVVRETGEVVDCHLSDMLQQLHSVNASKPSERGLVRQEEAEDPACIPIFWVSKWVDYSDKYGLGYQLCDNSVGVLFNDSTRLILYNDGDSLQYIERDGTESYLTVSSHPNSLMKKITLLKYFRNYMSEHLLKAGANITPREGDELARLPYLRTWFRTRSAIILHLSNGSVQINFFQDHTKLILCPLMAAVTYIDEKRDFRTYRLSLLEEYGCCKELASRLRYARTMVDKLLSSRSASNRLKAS

Question: Which IC50 [1] does the source give for `CC(/C=C\C(F)(F)F)Oc1cc(-c2cc(-c3cc(CN(C)C)cs3)cnc2N)ccc1C(N)=O` (racemic) here?
Answer: 73 nM

Question: What about the IC50 [2] of the same molecule?
Answer: 8410 nM

Question: And the metabolised at 0.5 h [3]?
Answer: 95%

Question: And the permeability [4]?
Answer: 27.6 ×10⁻⁶ cm/s

Question: With `CC(Oc1cc(-c2cc(-c3cc(CN(C)C)cs3)cnc2N)ccc1C(N)=O)c1ccccc1C(F)(F)F` (racemic) as the molecule, how does the IC50 [2] read?
Answer: 1320 nM

Question: What about the metabolised at 0.5 h [3] of the same molecule?
Answer: 87%

Question: Which IC50 [1] does the source give for `CC(Oc1cc(-c2nc(-c3cccc(CN(C)C)c3)cnc2N)ccc1C(N)=O)c1ccccc1C(F)(F)F` (racemic) here?
Answer: 2470 nM

Question: And the IC50 [2]?
Answer: 12100 nM

Question: With `Cc1cc(CN(C)C)sc1-c1cnc(N)c(-c2ccc(C(N)=O)c(OC(C)c3ccccc3C(F)(F)F)c2)c1` (racemic) as the molecule, how does the IC50 [1] read?
Answer: 58 nM

Question: What does the source list for `C[C@@H](Oc1cc(-c2cc(-c3cc(CN(C)C)cs3)cnc2N)ccc1C(N)=O)c1ccccc1C(F)(F)F`?
Answer: GI50 [5]: 480 nM; IC50 [2]: 820 nM; IC50 [6]: 26600 nM; IC50 [7]: 8810 nM; GI50 [8]: 220 nM; GI50 [9]: 950 nM; IC50 [10]: 4810 nM; GI50 [11]: 140 nM

Question: Which IC50 [1] does the source give for `CC(Oc1cc(-c2nc(-c3ccc(CN(C)C)s3)cnc2N)ccc1C(N)=O)c1ccccc1C(F)(F)F` (racemic) here?
Answer: 2680 nM

Question: With `CC(Oc1cc(-c2cc(-c3ccc(CN(C)C)s3)cnc2N)ccc1C(N)=O)c1ccccc1C(F)(F)F` (racemic) as the molecule, how does the IC50 [1] read?
Answer: 47 nM

Question: What about the IC50 [2] of the same molecule?
Answer: 500 nM

Question: With `CC(Oc1cc(-n2cnc3cc(OC4CCN(C)CC4)ccc32)ccc1C(N)=O)c1ccccc1C(F)(F)F` (racemic) as the molecule, how does the IC50 [12] read?
Answer: Not Active

Question: And the GI50 [5]?
Answer: 2960 nM

Question: And the GI50 [8]?
Answer: 2030 nM

Question: And the GI50 [9]?
Answer: 4950 nM

Question: And the GI50 [11]?
Answer: 1200 nM

Question: With `CC(Oc1cc(-c2cc(-c3cccs3)cnc2N)ccc1C(N)=O)c1ccccc1C(F)(F)F` (racemic) as the molecule, how does the IC50 [1] read?
Answer: 9000 nM

Question: Which IC50 [1] does the source give for `CC(Oc1cc(-c2nc(-c3ccc(CN(C)C)cc3)cnc2N)ccc1C(N)=O)c1ccccc1C(F)(F)F` (racemic) here?
Answer: 790 nM

Question: What about the IC50 [2] of the same molecule?
Answer: 3900 nM

Question: What does the source list for `CC(Oc1cc(-c2cc(-c3ccc(CN(C)C)cc3)cnc2N)ccc1C(N)=O)c1ccccc1C(F)(F)F` (racemic)?
Answer: IC50 [1]: 120 nM; IC50 [2]: 1560 nM; IC50 [6]: 2740 nM; IC50 [7]: 7930 nM; IC50 [10]: 3060 nM

Question: For `COc1cc(-c2cc(-c3cc(CN(C)C)cs3)cnc2N)ccc1C(N)=O`, which IC50 [1] is on record?
Answer: 2260 nM

Question: For `CC(Oc1cc(-c2nc(-c3cc(CN(C)C)cs3)cnc2N)ccc1C(N)=O)c1ccccc1C(F)(F)F` (racemic), which IC50 [1] is on record?
Answer: 2630 nM

Question: With `C[C@@H](/C=C\C(F)(F)F)Oc1cc(-c2cc(-c3cc(CN(C)C)cs3)cnc2N)ccc1C(N)=O` as the molecule, how does the IC50 [12] read?
Answer: Not Active

Question: And the GI50 [5]?
Answer: 2170 nM

Question: And the IC50 [1]?
Answer: 1800 nM

Question: What about the IC50 [2] of the same molecule?
Answer: > 50000 nM

Question: What about the IC50 [6] of the same molecule?
Answer: 530 nM

Question: And the IC50 [7]?
Answer: 2330 nM

Question: And the GI50 [8]?
Answer: 5420 nM

Question: What about the GI50 [9] of the same molecule?
Answer: 7250 nM

Question: And the IC50 [10]?
Answer: 7120 nM

Question: And the GI50 [11]?
Answer: 440 nM

Question: For `CC(Oc1cc(-c2cc(-c3ccc(CN4CCCCC4)s3)cnc2N)ccc1C(N)=O)c1ccccc1C(F)(F)F` (racemic), which IC50 [1] is on record?
Answer: 93 nM

Question: Which IC50 [1] does the source give for `COc1cc(-c2cc(-c3cccs3)cnc2N)ccc1C(N)=O` here?
Answer: 10500 nM

Question: With `CC(Oc1cc(-c2cc(-c3ccc(CN4CCOCC4)s3)cnc2N)ccc1C(N)=O)c1ccccc1C(F)(F)F` (racemic) as the molecule, how does the IC50 [1] read?
Answer: 318 nM

Question: For `CC(Oc1cc(-c2cc(-c3cccc(CN(C)C)c3)cnc2N)ccc1C(N)=O)c1ccccc1C(F)(F)F` (racemic), which IC50 [1] is on record?
Answer: 210 nM

Question: And the IC50 [2]?
Answer: 3290 nM

Question: For `Cc1cc(-c2cnc(N)c(-c3ccc(C(N)=O)c(OC(C)c4ccccc4C(F)(F)F)c3)c2)sc1CN(C)C` (racemic), which IC50 [1] is on record?
Answer: 47 nM
